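A five-concentration, 48-hour dose response in 96-well plates underlies each endpoint, interpolated linearly between surrounding concentrations. At the GI50, growth is halved. TGI: total growth inhibition.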

Among the test systems are CCRF-CEM leukemia; SF-539 CNS; SK-MEL-2 melanoma; NCI-H23 lung; NCI-H522 lung; M14 melanoma; HS 578T breast; HOP-92 NSCLC; SW-620 colon; SNB-75 CNS.
Common to all, as to test: NCI tumour cell line growth inhibition, 48 h

`COc1ccc2c(c1)CC[C@@H]1C2CC[C@]2(C)OC(=O)CCC12` (some centres not stated): the TGI is greater than 100 µM with CCRF-CEM leukemia; 30.4 µM with SF-539 CNS; 66.5 µM with SK-MEL-2 melanoma; 38.4 µM in the experiment with NCI-H23 lung; 19.4 µM in the experiment on NCI-H522 lung; 36 µM in the experiment on M14 melanoma. The TGI in the experiment with HS 578T breast turned out to be 60.6 µM; with HOP-92 NSCLC, 40.6 µM; in the experiment with SW-620 colon, 24.3 µM.

In the case of `CCOC(=O)/C(O)=C(\C=N\C(=S)Nc1ccc(Cl)c(Cl)c1)C(=O)OCC`, the TGI with CCRF-CEM leukemia, in the experiment with SF-539 CNS, in the experiment with SK-MEL-2 melanoma, in the experiment with NCI-H23 lung, in the experiment with M14 melanoma and with HS 578T breast was greater than 100 µM throughout. The TGI in the experiment with SNB-75 CNS, in the experiment with HOP-92 NSCLC and in the experiment with SW-620 colon was greater than 100 µM in each case.

`Brc1ccc(-c2ccc(-c3ccc(Br)s3)s2)s1`: the TGI in the experiment on CCRF-CEM leukemia, with SF-539 CNS, with SK-MEL-2 melanoma, in the experiment with NCI-H23 lung, in the experiment with M14 melanoma and in the experiment on HS 578T breast was greater than 100 µM throughout. Further, the TGI with SNB-75 CNS, in the experiment on HOP-92 NSCLC and in the experiment with SW-620 colon was greater than 100 µM each time.

Turning to `CC(C)=NN/C(=N\S(=O)(=O)c1cc(Cl)c(Oc2ccc([N+](=O)[O-])cc2Cl)c(Cl)c1)Nc1ccc(Cl)cc1`, the TGI in the experiment with CCRF-CEM leukemia, with SK-MEL-2 melanoma, in the experiment on NCI-H23 lung, in the experiment with NCI-H522 lung, in the experiment with M14 melanoma and in the experiment with HS 578T breast was greater than 100 µM in each case. The TGI in the experiment with HOP-92 NSCLC and in the experiment with SW-620 colon was greater than 100 µM in each case.

Turning to `C=C1C(=O)O[C@H]2C1C[C@@H](O)[C@@]1(C)OC1CC[C@@]1(C)O[C@H]21` (some centres not stated), the TGI in the experiment on CCRF-CEM leukemia came to 23.1 µM; in the experiment on SK-MEL-2 melanoma, 47.1 µM; in the experiment on NCI-H23 lung it was 37.4 µM; in the experiment on NCI-H522 lung it was 20 µM; in the experiment with M14 melanoma it was 31.3 µM; in the experiment with HS 578T breast it was 98.8 µM. In addition, the TGI in the experiment on SNB-75 CNS is greater than 100 µM; in the experiment on HOP-92 NSCLC it was 32.6 µM; in the experiment with SW-620 colon it was 38.5 µM.

`O=[N+]([O-])c1ccccc1S(=O)(=O)N1CCCc2cc(Cl)ccc21`: the TGI was greater than 100 µM with CCRF-CEM leukemia; 97.2 µM in the experiment on SF-539 CNS; greater than 100 µM in the experiment with SK-MEL-2 melanoma; greater than 100 µM in the experiment on NCI-H23 lung; greater than 100 µM with M14 melanoma; greater than 100 µM with HS 578T breast. The TGI in the experiment with SNB-75 CNS, in the experiment on HOP-92 NSCLC and in the experiment on SW-620 colon was greater than 100 µM each time.

As to `CCCCc1ccc(N2C(=O)c3cc(C)cnc3S2(=O)=O)cc1`, the TGI in the experiment with SK-MEL-2 melanoma, with NCI-H23 lung, in the experiment on NCI-H522 lung, in the experiment with M14 melanoma, with HS 578T breast and with SNB-75 CNS was greater than 100 µM in each case. Further, the TGI in the experiment on HOP-92 NSCLC and in the experiment with SW-620 colon was greater than 100 µM in each case.

Consider `C#CCNC(Cc1ccccc1)C(=O)O` (configuration not stated), for which the TGI in the experiment on CCRF-CEM leukemia, in the experiment on SK-MEL-2 melanoma, in the experiment on NCI-H23 lung, in the experiment with NCI-H522 lung, in the experiment with M14 melanoma and in the experiment with HS 578T breast was greater than 100 µM in each case. Further, the TGI with SNB-75 CNS, in the experiment with HOP-92 NSCLC and with SW-620 colon was greater than 100 µM throughout.

Consider `CC(=O)OCc1ccc(-c2nc(C#N)c(N)o2)o1`, for which the TGI in the experiment on CCRF-CEM leukemia, with SF-539 CNS, in the experiment with NCI-H23 lung, with NCI-H522 lung, with M14 melanoma and in the experiment on HS 578T breast was greater than 10 µM each time. The TGI in the experiment on SNB-75 CNS, with HOP-92 NSCLC and in the experiment with SW-620 colon was greater than 10 µM in each case.

`COC(=O)c1nc2c(C)c(O)c(O)c([C@H](C)CCC=C(C)C)c2o1`: the TGI with CCRF-CEM leukemia was 29.6 µM; with SF-539 CNS it was 35.7 µM; with SK-MEL-2 melanoma, 59.7 µM; with NCI-H23 lung, 89.8 µM; with M14 melanoma, greater than 100 µM; in the experiment with HS 578T breast, 87.4 µM. The values for the TGI in the experiment with SNB-75 CNS, in the experiment on HOP-92 NSCLC and in the experiment with SW-620 colon were 56.1 µM, 66.7 µM and greater than 100 µM, respectively.

Regarding `CC1OC(OC2C(CO)OC(O[C@H]3CC[C@@]4(C)C(=CC[C@H]5[C@@H]6C[C@@H]7O[C@](O)(CC[C@@H](C)COC8OC(CO)C(O)C(O)C8O)[C@@H](C)[C@@H]7[C@@]6(C)CC[C@@H]54)C3)C(OC3OC(C)C(O)C(O)C3O)C2O)C(O)C(O)C1O` (some centres not stated), the TGI with CCRF-CEM leukemia was 6.38 µM; with SF-539 CNS, 4.21 µM; with SK-MEL-2 melanoma it was 12.3 µM; in the experiment with NCI-H23 lung it was 10.3 µM; with NCI-H522 lung it was 4.41 µM; with M14 melanoma it was 4.69 µM. Besides, the TGI was greater than 100 µM in the experiment with HS 578T breast, 3.26 µM with SNB-75 CNS and 2.97 µM with SW-620 colon. Besides, the GI50 with M14 melanoma is 2.24 µM.

As for `COc1ccc(N=NN2CCCC2)cc1`, the TGI in the experiment with CCRF-CEM leukemia was 56.6 µM; in the experiment on SF-539 CNS, 66.7 µM; in the experiment on SK-MEL-2 melanoma, greater than 100 µM; in the experiment on NCI-H23 lung, greater than 100 µM; in the experiment with NCI-H522 lung, 32.2 µM; in the experiment on M14 melanoma, greater than 100 µM. Besides, the TGI was greater than 100 µM in the experiment with HS 578T breast, 42.4 µM with HOP-92 NSCLC and 81.4 µM in the experiment on SW-620 colon.

With `Cc1cccc(Nc2cn(CCOc3ccccc3)c(=O)[nH]c2=O)c1`, the TGI in the experiment on CCRF-CEM leukemia is greater than 100 µM; with NCI-H23 lung it was greater than 100 µM; in the experiment with M14 melanoma, greater than 100 µM; with HS 578T breast, greater than 100 µM; with HOP-92 NSCLC, 84 µM; in the experiment with SW-620 colon, greater than 100 µM.

In the case of `CCOC(=O)c1cc(-c2ccc(OC)c(OC)c2)cn1C`, the TGI in the experiment with CCRF-CEM leukemia, in the experiment on SF-539 CNS, with SK-MEL-2 melanoma, with NCI-H23 lung, in the experiment on NCI-H522 lung and in the experiment on M14 melanoma was greater than 10 µM each time. Also, the TGI with HS 578T breast, in the experiment on SNB-75 CNS and in the experiment with HOP-92 NSCLC was greater than 10 µM throughout.

For the origin of these results see PubChem BioAssay (NCI).
